Measurements taken from patent US20120135519A1, “INDUCED DERIVATION OF SPECIFIC ENDODERM FROM hPS CELL-DERIVED DEFINITIVE ENDODERM” (Cellartis AB, priority 2009, published 2012).
Entries after “also recorded” stand apart in the source; their conditions may differ.

Tests used:
Type in all cases: cell-based, human
[1] = test system: PDX1 expression; test: FGF inhibition assays: PDX1 expression in FGF2-treated hPS cell-derived definitive endoderm; details: for PDX1 expression: with FGF2 (64 ng/ml), real-time PCR, fold vs control at day eleven
Method: FGF receptor inhibition assays were performed by adding SU5402 (Calbiochem; […]), LY294002 (Cell Signalling technology; 12.5 μM) and U1026 (Cell Signalling technology; 10 μM) to the medium following DE induction at day three. Control cultures were treated with equal volume of the diluent DMSO. Fresh medium supplemented with appropriate inhibitor was added daily. Two to three samples were taken from separate wells at different time points (day 9-12) for mRNA analysis for each independent experiment.
(§1) Total RNA was extracted with GenElute Mammalian total RNA kit (Sigma-Aldrich). Total RNA concentrations were measured with the NanoDrop ND-1000 spectrophotometer (Nanodrop Technologies). Reverse transcription was performed with SuperScript III, according to the manufacturer's instructions, using 2.5 μM random hexamer and 2.5 μM oligo(dT) (Invitrogen). Real-time PCR measurements were performed on an ABI PRISM 7900HT Sequence Detector System (Applied Biosystems). 20 μl reactions containing 10 μl SuperMix-UDG w/ROX, 400 nM of each primer, 0.125× SYBR Green I (all reagents from Invitrogen) were used. Primer sequences are available as supplementary data (FIG. 6). Formation of expected PCR products was confirmed by agarose gel electrophoresis and melting curve analysis. Gene expression data was normalized against ACTB or RPL7 expression. […] Real-time PCR data analysis was performed as described (Bustin, 2000; Stahlberg et al., 2005).

[2] = test system: hPS cells; test: Immunofluorescence stainings of hPS cells treated with different FGF2 concentrations
Method: (§2) At day three, cells were washed with PBS and human FGF2 (Invitrogen) was added at different concentrations (0-256 ng/ml according to specifications in the results) in a KO-DMEM based medium containing 1% Penicillin-streptomycin, 1% Glutamax, 1% non-essential amino acids, 0.1mM beta-Mercaptoethanol and 12% knockout serum replacement (all reagents from Invitrogen). Medium was changed every day. Control cultures without FGF2 were grown in parallel and cell morphology was monitored daily. At each time point, two to four biological replicates were taken for each independent experiment. More specifically, each well was divided into 4-5 equal pieces depending on the number of time points that were analyzed.
hPS cells were fixed in 4% paraformaldehyde for 15 minutes at room temperature and washed three times in PBS-T (0.1% Triton X-100 in PBS). Fixed cells were permeabilized with 0.5% Triton X-100 in PBS for 15 minutes and blocked in PBS-T supplemented with 5% normal donkey serum (Jackson lmmunoresearch) for 1 h at room temperature before they were incubated overnight at 4° C. with the following primary antibodies and dilutions: goat polyclonal antibody (pAb) anti-FOXA-2 (kind gift from Palle Serup; Santa Cruz Biotechnology; 1:200), Guinea Pig pAb anti-PDX-1 (Chris Wright; BetaCellBiologyConsortium; 1:1500), Goat anti-PDX-1 (Chris Wright; BetaCellBiologyConsortium; 1:1500), rabbit pAb anti-NKX6.1 (BetaCellBiologyConsortium; 20 1:4000), mouse anti-CDX-2 (kind gift from Jonathan Draper; Biogenex; 1:500), rabbit pAb anti-SOX-9 (Chemicon; 1:500), rabbit anti-HNF-6 (Santa Cruz Biotechnology; 1:400), mouse mAb-anti PH-3 (Cell Signaling technology; 1:50), rabbit pAb-anti MKi67 (Novocastra; 1:200), rabbit anti-S0X2 (kind gift from Palle Serup; Chemicon; 1:250), goat anti-albumin (Bethyl laboratories; 1:300). After overnight incubation cells were washed three times for 5 minutes in PBS; and incubated with corresponding fluorescent secondary antibodies (Alexa 488, Cy3 and 647; Jackson lmmunoresearch and Invitrogen; diluted according to the manufacturer's instructions) for 60 min in PBS-T supplemented with 5% serum at room temperature. Cell nuclei were visualized by 4′-6′diamidino-2-phenylindole (DAPI) (Sigma-Aldrich; 1:1000) incubation for 4 minutes. Immunofluorescence stainings were detected and analyzed by epifluorescence microscopy (Zeiss Axioplan 2).
The percentage of PDX1 positive cells was calculated using the Imaris Imaging software (Bitplane). Ten randomly selected fields were chosen for each parameter. Using DAPI staining the software estimated the total area of cells. The area of the PDX1 positive cells was calculated in the same manner. Finally, the percentage of PDX1 positive cells was calculated by dividing the area of PDX1 positive cells by the DAPI positive area. Raw data from realtime PCR measurements was exported from SDS 2.2.1 and analyzed by Microsoft Excel graph pad. All data were statistically analyzed by multivariate comparison (one-way ANOVA) with Bonferroni correction. All values are depicted as mean±standard error of the mean (SEM) and considered significant if p<0.05.

[3] = test system: hPS cell derived definitive endoderm; test: Real-time PCR marker expression in hPS cell-derived definitive endoderm treated with FGF2
Method: hPS cells were seeded at a density of 12,000-24,000 cells/cm^2 and cultured until confluence. hPS cells were then differentiated into definitive endoderm as described previously (D'Amour et al., 2005). Briefly, cells were washed in PBS and treated with 100 ng/ml Activin A (R&D systems) and 25 ng/ml Wingless-type MMTV integration site family, member 3A (Wnt3a) in RPM! 1640 (GIBCO, Invitrogen) for three days in low serum (0-0.2% FBS).
as §2, §1

[4] = test system: hPS-derived definitive endoderm; test: Differentiation towards PDX-1 positive pancreatic endoderm with a single FGF instead of FGF2; details: used alone instead of FGF2
[5] = all FGF2 treated samples (4-256 ng/ml), day eleven, vs control
[6] = higher FGF2 concentration, day eleven
[7] = increasing FGF2 concentrations, day eleven, vs control (Activin A only)

N#CC(=C(/N)Sc1ccccc1N)/C(C#N)=C(/N)Sc1ccccc1N [U1026]
PDX1 expression ([1]; inhibitor 10 μM): diminished; also recorded: significantly reduced

FGF2: human fibroblast growth factor 2 (Invitrogen) added to the culture medium
ALB+ cells (ALB stainings) ([2]; 4 ng/ml FGF2): abundant | PDX1+ cells ([2]; 4 ng/ml FGF2): absent | number of PDX1+ cells (percentage of PDX1 positive cells) ([2]; 64 ng/ml FGF2, Imaris Imaging software, PDX1 area / DAPI area): 15-20% | ALB+ cells (ALB stainings) ([2]; 256 ng/ml FGF2): none | number of CDX2+ cells ([2]; 256 ng/ml FGF2): highest number | PDX1+ cells ([2]; 32, 64 and 256 ng/ml FGF2): always present | PDX1 mRNA expression ([3]; 4 ng/ml FGF2, day eleven, vs control (Activin A only)): remained unchanged | NKX6-1 mRNA expression ([3]; 64 ng/ml FGF2, day eleven): peak expression | PDX1 mRNA expression ([3]; 64 ng/ml FGF2, day eleven): peak expression | CDX2 mRNA expression ([3]; 256 ng/ml FGF2, day eleven): upregulated | FGF10 mRNA expression ([3]; 256 ng/ml FGF2, day eleven): peak expression | MNX1 mRNA expression ([3]; 256 ng/ml FGF2, day eleven): upregulated | NKX2-1 mRNA expression ([3]; 256 ng/ml FGF2, day eleven): peak expression | PTCH1 mRNA expression ([3]; 256 ng/ml FGF2, day eleven): peak expression | SHH mRNA expression ([3]; 256 ng/ml FGF2, day eleven): peak expression | SOX2 mRNA expression ([3]; 256 ng/ml FGF2, day eleven): significantly upregulated | SPRY2 mRNA expression ([3]; 256 ng/ml FGF2, day eleven): peak expression | CDX1 mRNA expression ([3]; FGF2 range tested, day eleven): remained unaffected | NGN3 mRNA expression [3, 5]: upregulated | SOX9 mRNA expression [3, 5]: upregulated | CPA1 mRNA expression ([3]; all samples, day eleven): remained unchanged | FOXA2 mRNA expression ([3]; all samples, day eleven): remained unchanged | CDX4 expression ([3]; any FGF2 concentration): not detected | FGFR1 expression [3, 6]: upregulated | FGFR2 expression [3, 6]: downregulated | FGFR3 expression [3, 6]: upregulated | FGFR4 expression [3, 6]: downregulated | thyroglobulin (TG) mRNA expression ([3]; increasing FGF2 concentrations (data not shown)): downregulated | ALB mRNA expression [3, 7]: downregulated | HNF4A mRNA expression [3, 7]: downregulated | ONECUT1 mRNA expression [3, 7]: downregulated | HHEX expression ([3]; tested FGF2 concentrations, non-dose-dependent): only moderately reduced

Cc1c[nH]c(/C=C2\C(=O)Nc3ccccc32)c1CCC(=O)O [SU5402]
number of PDX1 positive cells ([1]; SU5402 with FGF2 (64 ng/ml)): significantly decreased | PDX1 expression ([1]; inhibitor 10 μM): significantly reduced

O=c1cc(N2CCOCC2)oc2c(-c3ccccc3)cccc12 [LY294002]
PDX1 expression ([1]; inhibitor 12.5 μM): no significant effect

B1: FGF7: fibroblast growth factor tested alone instead of FGF2 (protein, UniProt P21781 32-194, looked up)
Fibroblast growth factor 7: CNDMTPEQMATNVNCSSPERHTRSYDYMEGGDIRVRRLFCRTQWYLRIDKRGKVKGTQEMKNNYNIMEIRTVAVGIVAIKGVESEFYLAMNKEGKLYAKKECNEDCNFKELILENHYNTYASAKWTHNGGEMFVALNQKGIPVRGKKTKKEQKTAHFLPMAIT
induction of differentiation towards PDX-1 positive pancreatic endoderm [4]: neither FGF4, FGF7 nor FGF10, when used alone instead of FGF2, is capable of inducing differentiation

B2: FGF4: fibroblast growth factor tested alone instead of FGF2 (protein, UniProt P08620 31-206, looked up)
Fibroblast growth factor 4: APTAPNGTLEAELERRWESLVALSLARLPVAAQPKEAAVQSGAGDYLLGIKRLRRLYCNVGIGFHLQALPDGRIGGAHADTRDSLLELSPVERGVVSIFGVASRFFVAMSSKGKLYGSPFFTDECTFKEILLPNNYNAYESYKYPGMFIALSKNGKTKKGNRVSPTMKVTHFLPRL
induction of differentiation towards PDX-1 positive pancreatic endoderm [4]: neither FGF4, FGF7 nor FGF10, when used alone instead of FGF2, is capable of inducing differentiation

B3: FGF10: fibroblast growth factor tested alone instead of FGF2 (protein, UniProt O15520 38-208, looked up)
Fibroblast growth factor 10: QALGQDMVSPEATNSSSSSFSSPSSAGRHVRSYNHLQGDVRWRKLFSFTKYFLKIEKNGKVSGTKKENCPYSILEITSVEIGVVAVKAINSNYYLAMNKKGKLYGSKEFNNDCKLKERIEENGYNTYASFNWQHNGRQMYVALNGKGAPRRGQKTRRKNTSAHFLPMVVHS
induction of differentiation towards PDX-1 positive pancreatic endoderm [4]: neither FGF4, FGF7 nor FGF10, when used alone instead of FGF2, is capable of inducing differentiation
